{"source": "patent US20130059787A1", "about": "“METHODS OF USING HUMAN PROTEIN KINASE C DELTA VIII AS A BIOMARKER” (UNITED STATES DEPARTMENT OF VETERAN AFFAIRS, priority 2010, published 2013)", "key": {"[1]": {"system": "PKCδVIII", "experiment": "RT-PCR with human PKCδ primers in primary neuronal cells from hippocampus", "format": "cell-based", "conditions": "RA about 24 h", "procedure": "FIG. 2 is a series of images indicating the expression of PKCδVIII. (a) an image showing that both PKCδI and PKCδVIII were detected and the levels of PKCδVIII increased with retinoic acid treatment. Primary neuronal cells from hippocampus were treated with RA for about 24 h. Total RNA was extracted and RT-PCR performed with primers described in FIG. 1 which detect both PKCδI and PKCδVIII simultaneously. (b) an image showing that the expression of PKCδVIII is tissue-specific with the highest levels seen in the fetal brain. Human fetal tissue specific cdNAs were used in PCR analysis using PKCδVIII-specific primers. (i) Liver (ii) kidney (iii) heart (iv) spleen (v) brain. About five percent products were separated on PAGE and detected by silver nitrate staining […]\nUsing PKCδ primers, PKCδI and PKCδVIII are detected simultaneously: PKCδI is 368 bp and PKCδVIII is 461 bp. […] About 5% of products were resolved on 6% PAGE gels and detected by silver staining. The PCR reaction was optimized for linear range amplification to allow for quantification of products. […]\nThe inventors looked for the expression of PKCδ isozymes in primary neuronal cells to verify the expression pattern of PKCδVIII. […] PKCδI and PKCδVIII isoforms were detected and the levels of PKCδVIII increased with retinoic acid treatment (FIG. 2a). PKCδVIII was not detected in aorta smooth muscle cells or skeletal muscle cells (data not shown). […]"}, "[2]": {"system": "SF2/ASF (SRp30a)", "experiment": "Western blot of NT2 whole cell lysates with specific antibodies", "format": "cell-based, human", "conditions": "RA about 10 μM, about 24 h; NT2 cells", "procedure": "(§1) FIG. 6 is a series of images illustrating the detection of SR proteins involved in RA-mediated PKXδVIII expression. NT2 cells were treated with RA (about 10 μM) for about 24 h or without RA (control), and Western blot analysis was performed on whole cell lysates using (a) mAb104 antibody that detects all SR proteins and (b) specific antibodies as indicated in the figure. Molecular masses are indicated (kDa).\n(§2) Cell lysates (about 40 μg) were separated on 10% SDS-PAGE. […] In apoptotic cells, PARP is cleaved by caspase 3 into an 85 kDa fragment which is detected in addition to the 116 KDa fragment using anti-PARP antibody in western blot analysis. […] (Putt K S, Beilman G J, and H. P J., Direct quantitation of poly(ADP-ribose) polymerase (PARP) activity as a means to distinguish necrotic and apoptotic death in cell and tissue samples. Chembiochem, 2005. 6: p. 53-55)\n(§3) (SR) proteins that bind to exonic or intronic splicing enhancers (ESE, ISE) on the pre-mRNA. […] NT2 cells were treated with or without RA (about 24 h), and whole cell lysates were analyzed by Western blot analysis using mAb104 antibody that simultaneously detects the phosphoepitopes on all SR proteins. […]"}, "[3]": {"system": "SC35 (SRp30b)", "experiment": "Western blot of NT2 whole cell lysates with specific antibodies", "format": "cell-based, human", "conditions": "RA about 10 μM, about 24 h; NT2 cells", "procedure": "as §1, §2, §3"}}, "data": [{"smiles": "CC1=C(/C=C/C(C)=C/C=C/C(C)=C/C(=O)O)C(C)(C)CCC1", "note": "[RA, all-trans-retinoic acid]", "values": [{"measurement": "levels of PKCδVIII (RT-PCR)", "setting": "[1]", "result": "increased"}, {"measurement": "SF2/ASF (SRp30a) expression", "setting": "[2]", "result": "remained relatively constant"}, {"measurement": "SC35 (SRp30b) expression", "setting": "[3]", "result": "increase"}]}]}
